The text below walks through data of the METLIN SMRT retention time set (Domingo-Almenara et al. 2019).

Structures are written as SMILES.

The data set is described as follows: gradient 5% acetonitrile 3 min, to 50% in 2 min, to 85% in 15 min, held 3 min, 100 µL/min. The following applies: column: Zorbax Extend-C18 2.1 x 50 mm; eluents: water / acetonitrile, 0.1% formic acid. Summed up: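 The system's dead and dwell volumes were 40 μL and 900 μL, with a Zorbax Extend-C18 column (2.1 × 50 mm, 1.8 μm) run at 100 μL/min in water and acetonitrile containing 0.1% formic acid each. Pure standards were analyzed in mixtures of ~100 molecules by HPLC–quadrupole time-of-flight mass spectrometry in positive and negative ionization mode. Retention time was assigned from computationally picked, manually inspected adduct peaks.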
The compound `CCOC(=O)c1sc(NC(=O)c2cn(CC)c3nc(C)ccc3c2=O)nc1C` displayed an RP-LC retention time of 1040 s. As to `CCCn1cnnc1C1CCN(Cc2cccc(OCC)c2)CC1`, the RP-LC retention time turned out to be 601 s. Then `CCOC(=O)C(=O)Nc1ccc(C(F)(F)F)cc1`, with 834 s; and `COc1ccc(S(=O)(=O)N2CCCN(c3ccc(=O)n(-c4ccc(C)c(C)c4)n3)CC2)cc1`, with 903 s.

In turn, `CCc1noc2nc(C)n(CC(=O)NCc3ccccc3)c(=O)c12` gave an RP-LC retention time of 753 s. Then `O=C(N1CCC(NS(=O)(=O)Cc2ccccc2)CC1)N1C[C@H]2C[C@H](C1)[C@H]1CCCC(=O)N1C2`, with 649 s; and `O=C(c1ccc(-c2cncnc2)nc1)N1CCN(c2ccccc2)CC1`, with 716 s; and `Cc1ccc(NC(=O)C2CC(=O)N(CCc3c[nH]c4ccc(C)cc34)C2)c(C)c1` (centres undefined), with 842 s. Take `Cn1c(C(=O)N2CCC(C(=O)NCc3ccccc3Cl)CC2)cc2oc3ccccc3c21`: the RP-LC retention time worked out at 978 s. `Cc1c(C(=O)NCC2CC2)cnn1-c1ccc(-c2nc(C3CC3)no2)cn1` returned an RP-LC retention time of 810 s. Then `O=C(Nc1cnc(N2CCCC2)nc1)c1cc(F)cc(F)c1`, with 765 s; and `CC(C)C(=O)NCC12CCCC=C1NC(=O)CC2` (centres undefined), with 624 s; and `O=C(Nc1cccc(F)c1)N1CCN(c2cc(-c3ccncc3)[nH]n2)CC1`, with 606 s.

Compound `O=C(c1cc(C2CC2)[nH]n1)N1CC(n2cc(COc3ccc(F)cc3)nn2)C1` came in with an RP-LC retention time of 735 s. Then `CC(C)NC(=O)N1CCCC(c2nc(C3CCOCC3)no2)C1` (centres undefined), with 661 s. Then `COc1ccc(CNC(=O)c2c(C)sc3ccn(Cc4ccc(F)cc4)c(=O)c23)cc1`, with 974 s; and `CCCNC(=O)C1CCCN(c2ccc(SCC(=O)Nc3ccccc3C)nn2)C1` (centres undefined), with 655 s; and `CCc1ccc(Nc2nc(C(=O)NCc3ccc(C)o3)nc3ccccc23)cc1`, with 923 s. The figure for `Cc1cc(C)cc(NC(=O)NCC2(N3CCOCC3)CCOC2)c1` (centres undefined) is 617 s. Take `CCc1ccccc1NS(=O)(=O)c1cc2n(c1)CCN(CC)C2=O`: the RP-LC retention time came to 771 s. The figure for `CCOc1ccc(NC(=O)N2CCC(c3nc(C(=O)N4CCOCC4)c(C)o3)CC2)cc1` is 704 s; for `Cc1ccc(NC(=O)Nc2nc3ccccc3s2)cc1NC(=O)Nc1nc2ccccc2s1` it is 1040 s. Consider `Cc1cccc(-c2nc(Cn3nnc(-c4nc(-c5cccnc5)no4)c3C)c(C)o2)c1`, for which the RP-LC retention time is 1060 s.

`O=c1c2cc3c(cc2nc(SCc2nc(-c4ccc(F)cc4)no2)n1Cc1ccncc1)OCO3`: the RP-LC retention time is 799 s.

Consider `CCCn1c(C)cnc1C1CN(S(=O)(=O)c2ccccc2)C1`, for which the RP-LC retention time was 565 s.

As for `O=C(Cn1cnc2c(sc3nc(-c4ccccc4)ccc32)c1=O)Nc1ccc(F)cc1Cl`, the RP-LC retention time was found to be 1050 s.

`CCCOc1ccc(-c2noc(Cc3nc(-c4ccc(OC)c(OC)c4)cs3)n2)cc1` had an RP-LC retention time of 1220 s. Regarding `Cc1ccc(-n2nc(N3CCN(C(=O)c4cccs4)CC3)ccc2=O)cc1C`, the RP-LC retention time worked out at 830 s.

In the case of `CCc1ccc(NC(=O)c2cn3c(n2)CCCC3)cc1`, the RP-LC retention time is 644 s. The compound `CCCc1ccc(S(=O)(=O)N2C[C@@H](F)C[C@H]2C(=O)N2CCCCC2)cc1` gave an RP-LC retention time of 937 s.

The compound `O=C(COc1ccc(F)cc1)NCC1CCOCC1` returned an RP-LC retention time of 677 s. `Cc1ccc(CCNC(=O)c2cc3sccc3n2Cc2ccc(F)cc2)cc1`: the RP-LC retention time came to 702 s.

In turn, `Cn1cc(C2=CCN(C(=O)NCc3cccc(F)c3)CC2)c2cccnc21` gave an RP-LC retention time of 791 s.

For `CN1C(=O)C(C)(C)N(Cc2ccccc2)c2ccccc21`, the RP-LC retention time worked out at 1080 s. `Cc1cc(Nc2nc(C(=O)NCCCN3CCOCC3)cc3occc23)ccc1Br`: the RP-LC retention time came to 724 s. The figure for `CCn1cnc(S(=O)(=O)N2CCC(C(=O)Nc3cccc(Cl)c3)CC2)c1` is 695 s; for `COCCNC(=O)c1c(C)oc2ccn(Cc3ccc(F)cc3)c(=O)c12` it is 837 s. Then `Cn1nc(-c2nnc(-c3ccc(F)cc3)o2)c2c1CCN(S(=O)(=O)Cc1ccccc1)C2`, with 999 s. Then `COCCn1cc(CC(=O)N2CCN(c3ccccn3)CC2)c2cccnc21`, with 569 s; and `CCc1nc(OCC(=O)Nc2ccc(Cl)cc2F)c2ccccc2n1`, with 899 s; and `CN(C)c1ccc2c(c1)CN(C(=O)c1ccoc1)CCO2`, with 573 s.

The compound `CSc1cccc(NC(=O)C2CCN(S(=O)(=O)c3ccc4[nH]c(=O)ccc4c3)CC2)c1` displayed an RP-LC retention time of 784 s. Then `CC1=C(c2cccc(Cl)c2)S(=O)(=O)N=C1N1CCCN(C(=O)NC(C)C)CC1`, with 802 s; and `Cc1nc(CC(=O)NCc2ccc(F)cc2F)sc1C(=O)NCC(C)C`, with 757 s. Compound `COc1ccc(CNC(=O)Cc2csc3nc(-c4cccc(Br)c4)cn23)cc1` yielded an RP-LC retention time of 886 s. The figure for `COc1ccc(CNC(=O)c2cn(C)nc2S(=O)(=O)N2CCC(C)CC2)cc1` is 904 s; for `Cc1ncoc1C(=O)N[C@@H]1CN(S(C)(=O)=O)C[C@H]1CN(C)C` it is 516 s; for `Cc1noc(-c2nc(-c3ccc(Cl)c(F)c3)no2)n1` it is 1090 s.

`Cn1c(=O)c(N2CCN(C(=O)c3cc(F)cc(F)c3)CC2)nc2cccnc21` displayed an RP-LC retention time of 860 s.

The compound `CCOc1ccc(NC(=O)Cn2c(=O)cc(-c3nc(CC)no3)c3ccccc32)cc1` registered an RP-LC retention time of 936 s. `COc1cccc(-c2noc(Cn3ccn(-c4ccc(Cl)cc4)c(=O)c3=O)n2)c1` had an RP-LC retention time of 876 s.

As for `CC(C)CC(=O)Nc1ccc2c(c1)nc(CN1CCCC1)n2C(C)C`, the RP-LC retention time was 612 s.

Consider `Cc1ccc(C)c(N2CCN(c3ccnc(SCC(=O)Nc4ccccc4Cl)n3)CC2)c1`, for which the RP-LC retention time was found to be 1130 s. The figure for `CCOC(=O)c1csc(-n2nc(C(F)(F)F)cc2-c2ccc(OC)cc2)n1` is 1280 s; for `Cc1ccc(-c2noc(CCN3CCN(C)CC3)n2)cc1` it is 630 s; for `CCOc1ccc(CN2CCc3nc(N4CCOCC4)ncc3C2)cc1OCC` it is 577 s. `Cc1nn(C)c(C)c1CCNC(=O)Nc1ccccc1Br` had an RP-LC retention time of 651 s. The figure for `CCCNC(=O)N1CCCN(C2=NS(=O)(=O)C(c3cccc(Cl)c3)=C2C)CC1` is 775 s.

The compound `O=S(=O)(c1cccnc1)N1CCCn2nc(-c3cccc(F)c3)cc2C1` registered an RP-LC retention time of 698 s. `COc1cccc(-n2c(=O)c(C(=O)Nc3cccc(Cl)c3)c(O)c3cccnc32)c1` registered an RP-LC retention time of 1330 s. Then `O=C(CCc1c(-c2ccc(Br)cc2)nc2ccccn12)NCc1cccc(F)c1`, with 677 s; and `Cc1ccc2c(c1)N(CC(=O)NC1CC1)C(=O)C(C)O2` (centres undefined), with 738 s.

The compound `O=C(COc1ccc(Cl)cc1)NCC1(c2ccc(F)cc2)CC1` came in with an RP-LC retention time of 988 s. On to `COc1ccc(N2CC(c3nc(-c4ccccc4Cl)no3)CC2=O)cc1OC` (centres undefined), for which the RP-LC retention time is 878 s.

`COc1ccc(CN(Cc2cc(=O)n3cccc(C)c3n2)CC(C)C)cc1OC` displayed an RP-LC retention time of 635 s.

For the compound `Cc1sc(NC(=O)CCc2ccccc2)nc1-c1ccc2c(c1)NC(=O)C(C)O2` (centres undefined), the RP-LC retention time was 687 s. Then `CCN1CCN(C(=O)c2ccc(-c3nnc4ccc(NC(=O)C5CC5)cn34)cc2)CC1`, with 587 s; and `CN1C(=O)CCc2cc(NS(=O)(=O)c3ccccc3C(F)(F)F)ccc21`, with 779 s. `CCCn1cc(C(=O)NCC(C)C)c2nn(-c3ccccc3)c(=O)c-2c1` gave an RP-LC retention time of 878 s. The compound `COc1ccc(-c2cn3c(CC(=O)Nc4ccc(F)cc4Cl)csc3n2)cc1` returned an RP-LC retention time of 795 s. The figure for `COc1ccc2[nH]c3c(c2c1)CCNC31CCN(Cc2ccc(F)cc2F)CC1` is 580 s. The figure for `Cc1ccc(NC(=O)CCNc2cnc3cnccn23)cc1Cl` is 590 s; for `Cc1ccc(NC(=O)C2CC(=O)N(CCc3c[nH]c4ccc(F)cc34)C2)c(C)c1` (centres undefined) it is 847 s; for `COc1ccc(-c2cn3cccnc3n2)cc1NC(=O)c1ccccc1Br` it is 685 s. The figure for `COc1ccc2c(c1)C1(CCN(C(=O)CCc3ccccc3)C1)C(=O)N2` (centres undefined) is 728 s.

For the compound `CC(C)CC(NC(=O)CC1CCCCC1)C(=O)Nc1nc2ccccc2[nH]1` (centres undefined), the RP-LC retention time came to 803 s. The figure for `CN1C(=O)c2ccccc2Sc2ccc(NC(=O)N3CCN(c4ccccn4)CC3)cc21` is 645 s; for `O=S(=O)(c1ccc(Cl)s1)N1CCc2nc(-c3ccccc3)ncc2C1` it is 1170 s. The figure for `O=C(Nc1ccc2oc(-c3ccccc3)nc2c1)C1CCN(c2cnn(Cc3ccccc3)c(=O)c2)C1` (centres undefined) is 923 s.
